How the values were obtained:
[1] = target: BRD4 (BDII_E352-M457) (Homo sapiens (Human), UniProt O60885); assay: TR-FRET bromodomain binding assay, BRD4 BDII; details: mean Ki, calculated from IC50, probe Kd and probe concentration
Experimental: (§1) A time-resolved fluorescence resonance energy transfer (TR-FRET) assay was used to determine the affinities of compounds of the Examples listed in Table 1 for each bromodomain of BRD4. His-tagged first (BDI: amino acids K57-E168) and second (BDII: amino acids E352-M457) bromodomains of BRD4 were expressed and purified. An Alexa647-labeled BET-inhibitor was used as the fluorescent probe in the assay.
(§2) Compound dilution series were prepared in DMSO via an approximately 3-fold serial dilution. Compound dilutions were added directly into white, low-volume assay plates (Perkin Elmer Proxiplate 384 Plus#6008280) using a Labcyte Echo in conjunction with Labcyte Access and Thermo Multidrop CombinL robotics. Compounds were then suspended in eight microliters (μL) of assay buffer (20 mM Sodium Phosphate, pH 6.0, 50 mM NaCl, 1 mM Ethylenediaminetetraacetic acid disodium salt dihydrate, 0.01% Triton X-100, 1 mM DL-Dithiothreitol) containing His-tagged bromodomain, Europium-conjugated anti-His antibody (Invitrogen PV5596) and Alexa-647-conjugated probe.
(§3) The final concentration of 1× assay mixture contained 2% DMSO, 12 nM His tagged BRD4 (BDI_K57-E168) and 100 nM probe or 4 nM His tagged BRD4 (BDII_E352-M457) and 30 nM probe, and 1 nM Europium-conjugated anti-His-tag antibody, and compound concentrations in the range of: 49.02 μM-0.61 nM or 0.98 μM-0.15 nM.
(§4) After a one-hour equilibration at room temperature, TR-FRET ratios were determined using an Envision multilabel plate reader (Ex 340, Em 495/520).
(§5) TR-FRET data were normalized to the means of 24 no-compound controls (“high”) and 8 controls containing 1 μM un-labeled probe (“low”). Percent inhibition was plotted as a function of compound concentration and the data were fit with the 4 parameter logistic equation to obtain IC50s. Inhibition constants (Ki) were calculated from the IC50s, probe Kd and probe concentration.

[2] = target: BRD4 (BDI_K57-E168) (Homo sapiens (Human), UniProt O60885); assay: TR-FRET bromodomain binding assay, BRD4 BDI; details: mean Ki, calculated from IC50, probe Kd and probe concentration
Experimental: as §1, §2, §3, §4, §5

Ki [1] | Ki [2] | SMILES
4.7 nM | 917 nM | Cc1cc(F)cc(C)c1Oc1ncc(C(C)(C)O)cc1-c1cn(C)c(=O)c2[nH]c(C(=O)NC(C)(C)C(F)(F)F)cc12 [Example 56, 4-[2-(4-fluoro-2,6-dimethylphenoxy)-5-(2-hydroxypropan-2-yl)pyridin-3-yl]-6-methyl-7-oxo-N-(1,1,1-trifluoro-2-methylpropan-2-yl)-6,7-dihydro-1H-pyrrolo[2,3-c]pyridine-2-carboxamide]
1.4 nM | 289 nM | CCNC(=O)c1cc2c(-c3cc(C(C)(O)CO)ccc3Oc3c(C)cccc3C)cn(C)c(=O)c2[nH]1 (stereo not drawn) [Example 66, 4-[5-(1,2-dihydroxypropan-2-yl)-2-(2,6-dimethylphenoxy)phenyl]-N-ethyl-6-methyl-7-oxo-6,7-dihydro-1H-pyrrolo[2,3-c]pyridine-2-carboxamide]
1.9 nM | 610 nM | CCNC(=O)c1cc2c(-c3cc(C(C)(C)O)ccc3Oc3c(C)cc(Cl)cc3C)cn(C)c(=O)c2[nH]1 [Example 84, 4-[2-(4-chloro-2,6-dimethylphenoxy)-5-(2-hydroxypropan-2-yl)phenyl]-N-ethyl-6-methyl-7-oxo-6,7-dihydro-1H-pyrrolo[2,3-c]pyridine-2-carboxamide]
1.1 nM | 389 nM | CCNC(=O)c1cc2c(-c3cc(C(C)(O)CF)ccc3Oc3c(C)cc(Cl)cc3C)cn(C)c(=O)c2[nH]1 (stereo not drawn) [Example 88, 4-[2-(4-chloro-2,6-dimethylphenoxy)-5-(1-fluoro-2-hydroxypropan-2-yl)phenyl]-N-ethyl-6-methyl-7-oxo-6,7-dihydro-1H-pyrrolo[2,3-c]pyridine-2-carboxamide]
9.6 nM | 682 nM | CCNC(=O)c1cc2c(-c3cc(C(C)(C)O)ccc3Oc3c(C)cc(F)cc3C(F)F)cn(C)c(=O)c2[nH]1 [Example 98, 4-{2-[2-(difluoromethyl)-4-fluoro-6-methylphenoxy]-5-(2-hydroxypropan-2-yl)phenyl}-N-ethyl-6-methyl-7-oxo-6,7-dihydro-1H-pyrrolo[2,3-c]pyridine-2-carboxamide]
2.3 nM | 332 nM | Cc1cc(F)cc(C)c1Oc1ccc(C(C)(C)O)cc1-c1cn(C)c(=O)c2[nH]c(C(N)=O)cc12 [Example 112, 4-[2-(4-fluoro-2,6-dimethylphenoxy)-5-(2-hydroxypropan-2-yl)phenyl]-6-methyl-7-oxo-6,7-dihydro-1H-pyrrolo[2,3-c]pyridine-2-carboxamide]
1.5 nM | 417 nM | CCNC(=O)c1cc2c(-c3cc(C(C)(C)O)ccc3Oc3c(C)cc(C#N)cc3C)cn(C)c(=O)c2[nH]1 [Example 73, 4-[2-(4-cyano-2,6-dimethylphenoxy)-5-(2-hydroxypropan-2-yl)phenyl]-N-ethyl-6-methyl-7-oxo-6,7-dihydro-1H-pyrrolo[2,3-c]pyridine-2-carboxamide]
8.7 nM | 927 nM | Cc1cccc(C)c1Oc1ccc(C(C)(C)O)nc1-c1cn(C)c(=O)c2[nH]c(C(=O)NC(C)(C)C)cc12 [Example 76, N-tert-butyl-4-[3-(2,6-dimethylphenoxy)-6-(2-hydroxypropan-2-yl)pyridin-2-yl]-6-methyl-7-oxo-6,7-dihydro-1H-pyrrolo[2,3-c]pyridine-2-carboxamide]
9.1 nM | 801 nM | CCNC(=O)c1cc2c(-c3nc(C(C)(C)O)ccc3Oc3c(C)cc(F)cc3C)cn(C)c(=O)c2[nH]1 [Example 96, N-ethyl-4-[3-(4-fluoro-2,6-dimethylphenoxy)-6-(2-hydroxypropan-2-yl)pyridin-2-yl]-6-methyl-7-oxo-6,7-dihydro-1H-pyrrolo[2,3-c]pyridine-2-carboxamide]
1.6 nM | 175 nM | Cc1cc(C(C)(C)O)cc(C)c1Oc1ccc(C(C)(C)O)cc1-c1cn(C)c(=O)c2[nH]c(C(=O)NC(C)(C)C)cc12 [Example 108, N-tert-butyl-4-{5-(2-hydroxypropan-2-yl)-2-[4-(2-hydroxypropan-2-yl)-2,6-dimethylphenoxy]phenyl}-6-methyl-7-oxo-6,7-dihydro-1H-pyrrolo[2,3-c]pyridine-2-carboxamide]
4.6 nM | 432 nM | Cc1cc(F)cc(Cl)c1Oc1ccc(C(C)(C)O)cc1-c1cn(C)c(=O)c2[nH]c(C(=O)NC(C)(C)C)cc12 [Example 53, N-tert-butyl-4-[2-(2-chloro-4-fluoro-6-methylphenoxy)-5-(2-hydroxypropan-2-yl)phenyl]-6-methyl-7-oxo-6,7-dihydro-1H-pyrrolo[2,3-c]pyridine-2-carboxamide]

The next lines start with the compound.

SMILES | Ki [1] | Ki [2]
Cc1cccc(Cl)c1Oc1ncc(C(C)(C)O)cc1-c1cn(C)c(=O)c2[nH]c(C(=O)NC(C)(C)C(F)(F)F)cc12 [Example 38, 4-[2-(2-chloro-6-methylphenoxy)-5-(2-hydroxypropan-2-yl)pyridin-3-yl]-6-methyl-7-oxo-N-(1,1,1-trifluoro-2-methylpropan-2-yl)-6,7-dihydro-1H-pyrrolo[2,3-c]pyridine-2-carboxamide] | 5.7 nM | 241 nM
Cc1cccc(C(F)(F)F)c1Oc1ncc(C(C)(C)O)cc1-c1cn(C)c(=O)c2[nH]c(C(=O)NC(C)(C)C(F)(F)F)cc12 [Example 46, 4-{5-(2-hydroxypropan-2-yl)-2-[2-methyl-6-(trifluoromethyl)phenoxy]pyridin-3-yl}-6-methyl-7-oxo-N-(1,1,1-trifluoro-2-methylpropan-2-yl)-6,7-dihydro-1H-pyrrolo[2,3-c]pyridine-2-carboxamide] | 19.5 nM | 2520 nM
CCNC(=O)c1cc2c(-c3cc(C(C)(O)CF)cnc3Oc3c(C)cc(Cl)cc3C)cn(C)c(=O)c2[nH]1 (stereo not drawn) [Example 102, 4-[2-(4-chloro-2,6-dimethylphenoxy)-5-(1-fluoro-2-hydroxypropan-2-yl)pyridin-3-yl]-N-ethyl-6-methyl-7-oxo-6,7-dihydro-1H-pyrrolo[2,3-c]pyridine-2-carboxamide] | 2.5 nM | 309 nM
CCNC(=O)c1cc2c(-c3cc(C(C)(C)O)cnc3Oc3c(C)cc(F)cc3Cl)cn(C)c(=O)c2[nH]1 [Example 52, 4-[2-(2-chloro-4-fluoro-6-methylphenoxy)-5-(2-hydroxypropan-2-yl)pyridin-3-yl]-N-ethyl-6-methyl-7-oxo-6,7-dihydro-1H-pyrrolo[2,3-c]pyridine-2-carboxamide] | 0.9 nM | 325 nM
Cn1cc(-c2cc(CO)ccc2Oc2ccccc2)c2cc[nH]c2c1=O [Compound Z, 4-[5-(hydroxymethyl)-2-phenoxyphenyl]-6-methyl-1,6-dihydro-7H-pyrrolo[2,3-c]pyridin-7-one, reference compound] | 15.5 nM | 69.9 nM
CCNC(=O)c1cc2c(-c3cc(C(C)(O)CF)cnc3Oc3c(C)cc(F)cc3C)cn(C)c(=O)c2[nH]1 (stereo not drawn) [Example 78, N-ethyl-4-[2-(4-fluoro-2,6-dimethylphenoxy)-5-(1-fluoro-2-hydroxypropan-2-yl)pyridin-3-yl]-6-methyl-7-oxo-6,7-dihydro-1H-pyrrolo[2,3-c]pyridine-2-carboxamide] | 2.2 nM | 253 nM
CCNC(=O)c1cc2c(-c3cc(C(O)(CC)CCc4ccccc4)cnc3Oc3c(C)cccc3C)cn(C)c(=O)c2[nH]1 (stereo not drawn) [Example 14, 4-[2-(2,6-dimethylphenoxy)-5-(3-hydroxy-1-phenylpentan-3-yl)pyridin-3-yl]-N-ethyl-6-methyl-7-oxo-6,7-dihydro-1H-pyrrolo[2,3-c]pyridine-2-carboxamide] | 2.3 nM | 965 nM
CCNC(=O)c1cc2c(-c3cc(C(C)(C)O)cnc3Oc3c(C)cccc3Cl)cn(C)c(=O)c2[nH]1 [Example 29, 4-[2-(2-chloro-6-methylphenoxy)-5-(2-hydroxypropan-2-yl)pyridin-3-yl]-N-ethyl-6-methyl-7-oxo-6,7-dihydro-1H-pyrrolo[2,3-c]pyridine-2-carboxamide] | 1.3 nM | 594 nM
CCNC(=O)c1cc2c(-c3cc(C(C)(C)O)cnc3-c3ccc(F)cc3F)cn(C)c(=O)c2[nH]1 [Example 89, 4-[2-(2,4-difluorophenyl)-5-(2-hydroxypropan-2-yl)pyridin-3-yl]-N-ethyl-6-methyl-7-oxo-6,7-dihydro-1H-pyrrolo[2,3-c]pyridine-2-carboxamide] | 1.7 nM | 281 nM
CCNC(=O)c1cc2c(-c3cc(C4(O)CCCC4)cnc3Oc3c(C)cccc3C)cn(C)c(=O)c2[nH]1 [Example 6, 4-[2-(2,6-dimethylphenoxy)-5-(1-hydroxycyclopentyl)pyridin-3-yl]-N-ethyl-6-methyl-7-oxo-6,7-dihydro-1H-pyrrolo[2,3-c]pyridine-2-carboxamide] | 2.3 nM | 273 nM
